Molecules are shown by their SMILES. pIC50: −log10 of the molar value.

This passage reports IC50 results from patent US20250066356A1, “LRRK2 INHIBITORS” (INTERLINE THERAPEUTICS, INC., priority 2022, published 2025).

For one assay, the target named is LRRK2 wild type enzyme (Homo sapiens, UniProt Q5S007). Kind of assay: LRRK2 biochemical assay (LanthaScreen TR-FRET, LRRKtide substrate). Conditions: LRRK2 inhibition; 3 nM LRRK2, 400 nM LRRKtide, 25 μM ATP, 120 min, 23° C. On the procedure:
10 mM compound solution was prepared in DMSO. An 11-point, 3-fold dilution was performed, with highest concentration at 10 μM. A 10 mM compound DMSO solution was added to Labcyte LDV plate and the compound concentration of source plate was 10 mM. The 1 st compound concentration of Inter plate (Labcyte 384 well PP plate) was 4.938×10^−1 mM which was prepared by transferring 1.5 μL of 10 mM compound from source plate to 28.9 μL DMSO. The 2nd compound concentration of Inter plate was 1.829×10^−2 mM which was prepared by transferring 60 nL of 10 mM compound from source plate to 32.7 μL DMSO. The 3rd compound concentration of Inter plate was 6.774×10^−4 mM which was prepared by transferring 2.5 nL of 10 mM compound from source plate to 36.9 μL DMSO. 100 nL of reference compound was dispensed in column 1 for low control wells and 100 nL of DMSO in column 24 for high control wells. Compounds were dispensed to column 2 to 23 of assay plate and backfilled with DMSO to a total volume of 100 nL.
A 2×LRRK2 enzyme solution (final concentration 3 nM) was prepared in assay buffer (Tris-HCl pH8.0: 50 mM, MgCl2: 5 mM, EDTA: 1 mM, Brij-35: 0.01%, 2 mM DTT). A 2× substrate solution was prepared: LRRK2 tide substrate (final concentration 400 nM) and ATP (final concentration 25 μM) in assay buffer. 5 μL 2×LRRK2 enzyme solution was dispensed to each well in assay plate by Multidrop. Assay plate was spun at 1,000 rpm for 1 min and incubated for 15 min at 23° C. 5 μL 2×ATP/LRRKtide solution was dispensed to each well in assay plate by Multidrop. Assay plate was spun at 1,000 rpm for 1 min and incubated for 120 min at 23° C.
A 2× detection solution was prepared: Tb-pERM (pLRRKtide) antibody (final concentration 0.25 nM) and EDTA (final concentration 10 mM) in TR-FRET dilution buffer. 10 μL 2× detection solution was dispensed to each well in assay plate to stop kinase reaction by Multidrop. Assay plate was spun at 1,000 rpm for 1 min and incubate for 30 min at 23° C. Assay plate was then read on Envision configured for LanthaScreen® TR-FRET.

The target in assay [1] is T1, phosphorylation at Ser935 on wild type LRRK2 overexpressed in recombinant HEK-293T cells (Homo sapiens, UniProt Q5S007).
T1 construct: host or cells: HEK293T, transient transfection
Nature of the assay: pS935 LRRK2 Cell Assay (HTRF). Format: cell-based. To be noted: LRRK2 inhibition; pS935 LRRK2 in transfected HEK293T cells, 2 hours compound incubation. The source says:
The following protocol describes an in-vitro method for measuring phosphorylation at Ser935 on wild type LRRK2 overexpressed in recombinant HEK-293T cells. The method is based on HTRF technology, which combines Fluorescence Resonance Energy Transfer (FRET) with Time-Resolved measurement (TR). Phospho-LRRK2 (Ser935) is detected in a sandwich assay format using two different specific antibodies, one labelled with Eu^3+-Cryptate (donor) and the second with d2 (acceptor). When the fluorophores are in close proximity, excitation of the donor with a light source (flash lamp) stimulates FRET to the acceptor, which in turn fluoresces at a specific wavelength (665 nm). The fluorescence emission at 615 nm from the donor is also measured to allow ratiometric reduction of data. The specific signal is proportional to phospho-LRRK2 (Ser935).
Plasmid transient transfection: DMEM medium, FBS, DPBS, Trans-IT, OPTI-MEM reagents were allowed to warm to room temperature. HEK293T cells were cultured in DMEM+10% FBS complete medium in T150 flasks till around 80% confluency before transfection. Then cells were washed with 10 mL PBS and detached with 3 mL 0.25% typinsin. 30×10E6 HEK293T cells were seeded in DMEM+10% FBS complete medium to a 15 cm dish.
DNA, TransIT-LT1, OPTI-MEM complex were prepared: […] OPTI-MEM was added to a 15 mL cone tube, then […] plasmid was added to OPTI-MEM and mixed, followed by addition of 60 L TransIT-LT1 to the plasmid OPTI-MEM mixture and mixing. The resulting mixture was incubated for 15 minutes.
The above plasmid, DNA and OPTI-MEM mixture was added dropwise to the 15 cm dish, ensuring the drops were evenly distributed. The culture dish was gently rocked back and forth and from left to right to evenly distribute the complex. The transfected dish was incubated for 24 hours at 37° C., and 5% CO2.
Transfected HEK293T was collected in the 15 cm dish. Media was aspirated from tissue culture dish, and washed by dispensing 10 mL 1×DPBS into 15 cm dish. 1×DPBS was aspirated and 3 mL trypsin was dispensed to 15 cm dish. The dish was incubated with trypsin at room temperature for 3 min until the cells were detached. 10 mL of DMEM+10% FBS medium were added to 15 cm dish and triturated to ensure homogenous cell suspensions.
Homogenous cell suspensions were transferred to a 50 mL tube, and centrifuged for 5 minutes at 1,000 rmp/min. The supernatant was aspirated and resuspended with 20 mL complete medium. 1 mL of cell suspension was transferred for cell counting. The cell suspension was diluted to 2×10E5 cells/ml. 50 L cell suspensions were added to a 384-well plate. The plate was quick spun at 800 rpm for 1 minute, then incubate overnight at 37° C., 5% CO2.
Compound dispensing: compound was diluted (10 mM DMSO stock solution) and added to assay plate (top concentration: 10 μM, 3 fold serial dilution, 9 doses) with duplicates by Tecan liquid handler. The DMSO concentration of each well was normalized to 0.2%. Plates were quick spun at 1,000 rpm for 1 minute. Plates were incubated at 37° C., 5% CO2 for 2 hours.
1× lysis buffer solution supplemented with blocking reagent was prepared (e.g. 1 mL lysis buffer 4×+3 mL water+40 L stock blocking reagent 100×). Antibodies working solution was prepared by diluting 40-fold d2 and Cryptate antibodies with detection buffer (e.g. 1520 L detection buffer+40 L d2-antibody stock solution+[…] Cryptate-antibody stock solution).
After 2 hours incubation, cell plates were taken out from the incubator. Medium was removed by plate washer, then 16 µL of supplemented lysis buffer was added 1× to each well and incubated for 30 minutes at room temperature under shaking (800 rpm/min). 4 µL of antibodies working solution was added to each well, covered with a top seal and incubated overnight in 23° C. incubator.
HTRF signal was read (665 nm and 615 nm) on Wallac 2104 EnVision® multilabel reader. Data were analyzed by XL fit software.

Sequence of LRRK2 wild type enzyme (Q5S007 whole entry): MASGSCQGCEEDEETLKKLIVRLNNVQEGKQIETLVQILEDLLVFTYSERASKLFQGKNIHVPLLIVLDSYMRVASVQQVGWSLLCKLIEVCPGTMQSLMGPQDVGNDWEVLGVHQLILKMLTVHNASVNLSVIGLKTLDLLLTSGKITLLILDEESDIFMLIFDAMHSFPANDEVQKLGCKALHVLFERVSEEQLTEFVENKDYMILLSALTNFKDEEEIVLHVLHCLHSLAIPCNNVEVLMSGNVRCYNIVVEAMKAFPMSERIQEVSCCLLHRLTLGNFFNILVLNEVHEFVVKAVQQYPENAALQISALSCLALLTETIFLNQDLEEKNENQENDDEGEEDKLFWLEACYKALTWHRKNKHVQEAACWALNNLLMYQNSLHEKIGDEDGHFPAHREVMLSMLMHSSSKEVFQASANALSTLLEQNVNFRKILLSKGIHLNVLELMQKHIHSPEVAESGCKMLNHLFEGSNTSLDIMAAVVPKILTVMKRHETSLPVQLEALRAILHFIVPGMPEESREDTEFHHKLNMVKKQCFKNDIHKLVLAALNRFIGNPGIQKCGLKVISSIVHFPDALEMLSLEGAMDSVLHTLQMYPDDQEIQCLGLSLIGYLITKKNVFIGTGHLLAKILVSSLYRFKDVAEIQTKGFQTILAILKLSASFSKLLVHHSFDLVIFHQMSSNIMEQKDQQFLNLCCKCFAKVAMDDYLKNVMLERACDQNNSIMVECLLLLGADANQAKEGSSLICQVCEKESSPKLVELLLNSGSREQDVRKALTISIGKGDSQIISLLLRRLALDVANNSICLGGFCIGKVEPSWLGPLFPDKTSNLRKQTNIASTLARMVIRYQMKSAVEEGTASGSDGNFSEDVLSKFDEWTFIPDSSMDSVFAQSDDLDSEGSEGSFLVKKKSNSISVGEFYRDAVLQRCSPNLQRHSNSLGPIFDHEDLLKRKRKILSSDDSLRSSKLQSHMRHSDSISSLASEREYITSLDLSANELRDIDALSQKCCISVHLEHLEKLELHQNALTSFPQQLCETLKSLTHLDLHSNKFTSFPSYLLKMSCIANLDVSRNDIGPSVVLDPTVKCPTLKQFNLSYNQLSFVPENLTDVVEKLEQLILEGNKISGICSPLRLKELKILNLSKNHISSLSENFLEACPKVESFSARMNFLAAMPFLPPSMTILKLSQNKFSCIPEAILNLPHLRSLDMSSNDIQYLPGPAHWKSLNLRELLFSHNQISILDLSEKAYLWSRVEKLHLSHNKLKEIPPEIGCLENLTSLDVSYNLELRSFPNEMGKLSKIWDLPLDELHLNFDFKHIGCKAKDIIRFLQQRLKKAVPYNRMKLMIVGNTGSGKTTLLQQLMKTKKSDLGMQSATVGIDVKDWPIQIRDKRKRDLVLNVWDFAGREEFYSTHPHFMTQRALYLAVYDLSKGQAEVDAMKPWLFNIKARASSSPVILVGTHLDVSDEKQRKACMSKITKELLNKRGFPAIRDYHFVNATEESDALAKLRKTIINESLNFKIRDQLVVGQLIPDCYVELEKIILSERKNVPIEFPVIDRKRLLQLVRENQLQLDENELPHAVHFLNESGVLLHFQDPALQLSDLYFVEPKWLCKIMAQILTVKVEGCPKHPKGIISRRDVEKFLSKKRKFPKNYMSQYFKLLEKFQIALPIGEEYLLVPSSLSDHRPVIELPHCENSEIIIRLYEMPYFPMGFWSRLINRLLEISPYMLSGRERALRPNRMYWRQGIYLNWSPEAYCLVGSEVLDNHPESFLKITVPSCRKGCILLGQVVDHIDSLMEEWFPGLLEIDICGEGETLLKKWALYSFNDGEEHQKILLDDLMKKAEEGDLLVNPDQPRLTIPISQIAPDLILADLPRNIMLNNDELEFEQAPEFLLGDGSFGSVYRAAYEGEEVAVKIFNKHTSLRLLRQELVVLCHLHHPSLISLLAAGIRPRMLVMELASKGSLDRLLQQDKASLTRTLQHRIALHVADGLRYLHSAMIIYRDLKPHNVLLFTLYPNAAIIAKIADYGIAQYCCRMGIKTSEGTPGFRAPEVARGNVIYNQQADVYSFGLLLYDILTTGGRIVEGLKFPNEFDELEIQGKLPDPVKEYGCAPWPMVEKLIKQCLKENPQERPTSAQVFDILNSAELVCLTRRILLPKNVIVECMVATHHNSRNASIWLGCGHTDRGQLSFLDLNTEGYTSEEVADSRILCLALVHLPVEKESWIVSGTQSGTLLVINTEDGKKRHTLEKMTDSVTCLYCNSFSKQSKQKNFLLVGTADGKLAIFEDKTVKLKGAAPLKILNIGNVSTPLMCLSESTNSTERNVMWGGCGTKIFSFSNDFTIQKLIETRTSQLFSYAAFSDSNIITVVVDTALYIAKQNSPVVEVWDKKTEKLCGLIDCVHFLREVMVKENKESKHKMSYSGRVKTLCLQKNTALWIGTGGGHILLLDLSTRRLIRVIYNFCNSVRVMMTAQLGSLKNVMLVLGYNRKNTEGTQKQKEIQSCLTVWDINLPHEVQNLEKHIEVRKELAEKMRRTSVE
T1 sequence (Q5S007 whole entry): as above

As a reminder, the pIC50 is −log10 of the IC50, conventionally taken in molar units. `C[C@@H]1C[C@H](n2c(Cc3noc(N4CCC(O)C4)n3)nc3cnc4ccc(C#N)cc4c32)CCO1` (mixture of isomers) [Compound 12, 2-({5-[(3RS)-3-hydroxypyrrolidin-1-yl]-1,2,4-oxadiazol-3-yl}methyl)-1-[(2R,4R)-2-methyloxan-4-yl]-1H-imidazo[4,5-c]quinoline-8-carbonitrile]: the figures for the negative logarithm of the IC50 (pIC50) (against LRRK2 wild type enzyme; in assay [1]) were 8.87 and 6.09, respectively.
Compound `C[C@@H]1CC(n2c(Cn3nccc3NS(C)(=O)=O)nc3cnc4ccc(C#N)cc4c32)CCO1` (stereo in doubt) [Compound 16, N-(1-{[8-cyano-1-(2-methyloxan-4-yl)-1H-imidazo[4,5-c]quinolin-2-yl]methyl}-1H-pyrazol-5-yl)methanesulfonamide] gave a pIC50 on LRRK2 wild type enzyme of 6.17.
In the case of `C[C@@H]1C[C@H](n2c(Cc3noc(N4CC(O)C4)n3)nc3cnc4ccc(C#N)cc4c32)CCO1` [Compound 1, 2-{[5-(3-hydroxyazetidin-1-yl)-1,2,4-oxadiazol-3-yl]methyl}-1-[(2R,4R)-2-methyloxan-4-yl]-1H-imidazo[4,5-c]quinoline-8-carbonitrile], the results for the negative-log IC50 (pIC50) (against LRRK2 wild type enzyme; in assay [1]) were 9.01 and 6.18, respectively.
Regarding `C[C@@H]1C[C@H](n2c(Cn3cccc(C(=O)O)c3=O)nc3cnc4ccc(C#N)cc4c32)CCO1` [Compound 2, 1-({8-cyano-1-[(2R,4R)-2-methyloxan-4-yl]-1H-imidazo[4,5-c]quinolin-2-yl}methyl)-2-oxo-1,2-dihydropyridine-3-carboxylic acid], on LRRK2 wild type enzyme, the negative logarithm of the IC50 (pIC50) is 6.97.
As to `C[C@@H]1C[C@H](n2c(Cc3noc(N4CC(O)C4)n3)nc3cnc4ccc(Cl)cc4c32)CCO1` [Compound 3, 1-[3-({8-chloro-1-[(2R,4R)-2-methyloxan-4-yl]-1H-imidazo[4,5-c]quinolin-2-yl}methyl)-1,2,4-oxadiazol-5-yl]azetidin-3-ol], the pIC50 at LRRK2 wild type enzyme is 9.10; in assay [1] it was 7.21.
`C[C@@H]1C[C@H](n2c(Cn3ccc(NS(C)(=O)=O)n3)nc3cnc4ccc(C#N)cc4c32)CCO1` [Compound 4, N-(1-{[8-cyano-1-(2-methyloxan-4-yl)-1H-imidazo[4,5-c]quinolin-2-yl]methyl}-1H-pyrazol-3-yl)methanesulfonamide]: the pIC50 was 9.05 against LRRK2 wild type enzyme and 6.34 in assay [1].
With `C[C@@H]1C[C@H](n2c(Cc3cn(C4CN(S(C)(=O)=O)C4)nn3)nc3cnc4ccc(C#N)cc4c32)CCO1` [Compound 5, 2-{[1-(1-methanesulfonylazetidin-3-yl)-1H-1,2,3-triazol-4-yl]methyl}-1-[(2R,4R)-2-methyloxan-4-yl]-1H-imidazo[4,5-c]quinoline-8-carbonitrile], the negative logarithm of the IC50 (pIC50) is 9.20 on LRRK2 wild type enzyme and 6.49 in assay [1].
The like results for `C[C@@H]1C[C@H](n2c(Cc3ccc(NS(C)(=O)=O)nc3)nc3cnc4ccc(C#N)cc4c32)CCO1` [Compound 6, N-(5-{[8-cyano-1-(2-methyloxan-4-yl)-1H-imidazo[4,5-c]quinolin-2-yl]methyl}pyridin-2-yl)methanesulfonamide] were, in that order, 8.40 and 5.36.
As for `C[C@@H]1C[C@H](n2c(Cc3n[nH]c(=O)o3)nc3cnc4ccc(C#N)cc4c32)CCO1` [Compound 7, 1-[(2R,4R)-2-methyloxan-4-yl]-2-[(5-oxo-4,5-dihydro-1,3,4-oxadiazol-2-yl)methyl]-1H-imidazo[4,5-c]quinoline-8-carbonitrile], the results for the pIC50 (at LRRK2 wild type enzyme; in assay [1]) were 8.83 and 6.33, respectively.
Turning to `C[C@@H]1C[C@H](n2c(Cc3cnn(C4COC4)c3)nc3cnc4ccc(C#N)cc4c32)CCO1` [Compound 8, 1-[(2R,4R)-2-methyloxan-4-yl]-2-{[1-(oxetan-3-yl)-1H-pyrazol-4-yl]methyl}-1H-imidazo[4,5-c]quinoline-8-carbonitrile], the negative-log IC50 (pIC50) on LRRK2 wild type enzyme was 8.19; in assay [1], 6.21.
For `C[C@@H]1C[C@H](n2c(Cc3noc(N4CCN(C)C(=O)C4)n3)nc3cnc4ccc(C#N)cc4c32)CCO1` [Compound 9, 2-{[5-(4-methyl-3-oxopiperazin-1-yl)-1,2,4-oxadiazol-3-yl]methyl}-1-[(2R,4R)-2-methyloxan-4-yl]-1H-imidazo[4,5-c]quinoline-8-carbonitrile], in that order: 8.77 and 6.21.
For `C[C@@H]1C[C@H](n2c(Cc3noc(C4(S(C)(=O)=O)CC4)n3)nc3cnc4ccc(Cl)cc4c32)CCO1` [Compound 10, 3-({8-chloro-1-[(2R,4R)-2-methyloxan-4-yl]-1H-imidazo[4,5-c]quinolin-2-yl}methyl)-5-(1-methanesulfonylcyclopropyl)-1,2,4-oxadiazole], the pIC50 was 9.52 against LRRK2 wild type enzyme and 7.99 in assay [1].
The like results for `C[C@@H]1C[C@H](n2c(Cc3noc(N4CCC(O)CC4)n3)nc3cnc4ccc(C#N)cc4c32)CCO1` [Compound 11, 2-{[5-(4-hydroxypiperidin-1-yl)-1,2,4-oxadiazol-3-yl]methyl}-1-[(2R,4R)-2-methyloxan-4-yl]-1H-imidazo[4,5-c]quinoline-8-carbonitrile] were, in that order, 8.65 and 6.57.
Turning to `C[C@@H]1C[C@H](n2c(Cc3cc(CCS(C)(=O)=O)on3)nc3cnc4ccc(C#N)cc4c32)CCO1` [Compound 20, 2-{[5-(2-methanesulfonylethyl)-1,2-oxazol-3-yl]methyl}-1-[(2R,4R)-2-methyloxan-4-yl]-1H-imidazo[4,5-c]quinoline-8-carbonitrile], the negative logarithm of the IC50 (pIC50) on LRRK2 wild type enzyme was 9.22.
On LRRK2 wild type enzyme, `C[C@@H]1C[C@H](n2c(Cc3ccc(S(C)(=O)=O)cn3)nc3cnc4ccc(C#N)cc4c32)CCO1` [Compound 22, 2-[(5-methanesulfonylpyridin-2-yl)methyl]-1-[(2R,4R)-2-methyloxan-4-yl]-1H-imidazo[4,5-c]quinoline-8-carbonitrile] gave a negative logarithm of the IC50 (pIC50) of 9.24.
